From patent publication US7897620B2, “Methods of using anti-inflammatory compounds” (Cambridge Enterprise Limited, priority 2007, dated 2011)
Where two headings read alike, the source gives them in different places.

Tests used:
[1] = Pharmacokinetics following a single dose in rat (LC-MS/MS of blood, one-compartment model); format: in vivo; details: for AUC(0-inf): single oral dose 3 mg/kg in 1% CMC, read-out: Exposure (AUC 0->infinity) (converted); for clearance: read-out: Clearance; for bioavailability: po, 3 mg/kg
Protocol: Compounds were administered as a single dose (either 1 mg/kg bodyweight in 5% DMSO via the intravenous route or 3 mg/kg in 1% carboxymethylcellulose via the oral route) to three adult rats (using different rats for each compound and each route of administration).
Blood was then sampled at various time points (including just prior to dose administration) out to 24 hrs post dose, and the level of the various compounds was assessed using a validated LC-MS/MS assay. Briefly, 3-5 μl of the deproteinised sample was applied to a Waters Atlantis (C18 20×2.1 mm, 3 μm bead size) reverse phase chromatography column equilibrated in 0.1% formic acid in 95:5 water:actetonitrile. Over 3.5 minutes bound material was gradient eluted reaching 0.1% formic acid in 5:95 water:acetonitrile, followed by a step gradient back to 0.1% formic acid in 95:5 water:acetonitrile. The column eluent was then directed to an Applied Biosystems API 4000/3200 QTrap MS/MS mass spectrometer, with a Turbolonspray™ ion source operating in positive ion mode. The interface temperature was set at 650° C., with a 40 ms dwell time for each MRM transition, monitoring the following ions:
The internal standard in each determination was the related compound (S)-3-(2′,2′-dimethylpropanoylamino)-caprolactam, which was spiked into the sample prior to deproteinization. The lower limit of quantitation (LLOQ) for this assay was 2.4 ng/ml for each compound except (I′), where it was 38.1 ng/ml.
Following LC-MS/MS analysis of each collected sample, the pharmacokinetic disposition of the compound was modelled using Kinetica software, a well known software package for such applications.

[2] = test system: C5a induced neutrophil migration; assay: ChemoTx transwell migration assay, C5a induced migration of neutrophils (non-chemokine chemoattractant); format: cell-based; details: highest concentration tested 1 μM, read-out: ED50 C5a neutrophils
Protocol: In principle, this assay consists of two chambers separated by a porous membrane. The chemoattractant is placed in the lower compartment and the cells are placed in the upper compartment. After incubation for a period at 37° C. the cells move towards the chemoattractant, and the number of cells in the lower compartment is proportional to the chemoattractant activity (relative to a series of controls).
Next, the chemoattractant solution to be placed in the lower compartment is prepared. For example, MCP-1 is diluted in GBSS+BSA to give a final concentration of 25 ng/ml. This is divided into two pots, as for the cell suspension. To one pot, the test compound is added to the same final concentration as was added to the cell suspension, while to the other pot an equal volume of GBSS+BSA plus vehicle as appropriate (e,g. not more than 1% DMSO) is added. Alternatively, other chemokines may be used (SDF-1α at 7.5 ng/ml; RANTES at 50 ng/ml; IL-8 at 10 ng/ml using neutrophils as the target cell population). In each case it is important to determine (in a separate experiment) the concentration of each chemokine which causes maximal stimulation of migration of the chosen target leukocyte population. […]
The number of cells migrated into the lower chamber under each condition can then be determined by a number of methods, including direct counting, labelling with fluorescent or radioactive markers or through the use of a vital dye. […] 3 μl of stock MTT solution are added to each well, and then the plate is incubated at 37° C. for 1-2 hours during which time dehydrogenase enzymes within the cells convert the soluble MTT to an insoluble blue formazan product that can be quantified spectrophotometrically. […]
At the end of this incubation, the liquid is carefully removed from the lower chambers, taking care not to disturb the precipitated formazan product. After allowing to air dry briefly, 20 μl of DMSO is added to each lower chamber to solubilise the blue dye, and absorbance at 595 nm is determined using a 96-well plate reader. […]

[3] = blood, rat, averaged across three rats
[4] = rat, blood, iv, 1 mg/kg, rat, one-compartment model, averaged across three rats
[5] = rat, one-compartment model, averaged across three rats
[6] = plasma, iv, 1 mg/kg, rat, one-compartment model, averaged across three rats, read-out: t½ (mins) dominant plasma half-life
[7] = rat, blood, iv, 1 mg/kg, rat, one-compartment model, averaged across three rats, read-out: Vss (L/kg) volume of distribution
[8] = rat, blood, rat, 1 mg/kg iv in 5% DMSO and 3 mg/kg oral in 1% CMC, one-compartment model, averaged across three rats, read-out: F (%) oral bioavailability
[9] = blood, Rat, Intravenous PK (1 mg/kg), read-out: Half-life
[10] = blood, Rat, Oral PK (3 mg/kg), read-out: Half-life
[11] = rat, blood, iv, 1 mg/kg, Rat, Intravenous PK (1 mg/kg)
[12] = rat, blood, iv, 1 mg/kg, Rat, Intravenous PK (1 mg/kg), read-out: Vss
[13] = rat, blood, Rat, Oral PK (3 mg/kg), read-out: Bioavailability (%)

| Compound | AUC(0-inf) [1, 3] | clearance [1, 4] | EC50 [2] | half-life [1, 6] | Vd [1, 7] | bioavailability [1, 8] | half-life [1, 9] | AUC ([1]; blood, Rat, Oral PK (3 mg/kg)) | Tmax ([1]; blood, Rat, Oral PK (3 mg/kg)) | half-life [1, 10] | clearance [1, 11] | Vd [1, 12] | bioavailability [1, 13] | also measured |
| --- | --- | --- | --- | --- | --- | --- | --- | --- | --- | --- | --- | --- | --- | --- |
| O=C1NCCCC[C@@H]1NC(=O)C12CC3CC(CC(C3)C1)C2 [(II), 3-(adamantane-1-carbonylamino)-caprolactam] | 7.95 ng·h/mL | 84 mL/min/kg | > 1000 nM | – | – | – | – | – | – | – | – | – | – | F (%) oral bioavailability ([1]; rat, 1 mg/kg iv in 5% DMSO and 3 mg/kg oral in 1% CMC, one-compartment model, averaged across three rats): <1%; Vss (L/kg) volume of distribution [1, 5]: 0.8 L/kg; t½ (mins) dominant plasma half-life [1, 5]: 16 min |
| CC(C)(C)S(=O)(=O)N[C@H]1CCCCNC1=O [(IV), 3-(1′,1′-dimethylethylsulfonylamino)-caprolactam] | 690 ng·h/mL | 32 mL/min/kg | – | 19 min | 0.6 L/kg | 45% | – | – | – | – | – | – | – | – |
| O=C1NCCCC[C@@H]1NC(=O)C12CC3CC(CC(O)(C3)C1)C2 [(V), 3-(3′-hydroxyadamantyl-1-carbonylamino)-caprolactam] | 952 ng·h/mL | 31 mL/min/kg | > 1000 nM | 24 min | 1.4 L/kg | 59% | 24 min | 952 ng·h/mL | 15 min | 24 min | 33 mL/min/kg | 0.8 L/kg | 59% | – |
| CC(C)(C)C(=O)N[C@H]1CCCNC1=O [Compound (I′), 3-(2′,2′-dimethylpropanoylamino)-tetrahydropyridin-2-one] | 15600 ng·h/mL | – | > 1000 nM | 196 min | 0.7 L/kg | 69% | 196 min | 15600 ng·h/mL | 15 to 120 min | 226 min | 2.6 mL/min/kg | 0.7 L/kg | 81% | half-life ([1]; plasma, intravenous, 1 mg/kg, rat, read-out: plasma half-life): > 180 min; clearance, times lower than for the other lactam BSCIs ([1]; rat): more than 10 fold; clearance ([1]; rat, blood, intravenous, 1 mg/kg, rat, one-compartment model, averaged across three rats): 2.6 mL/min/kg; exposure relative to the next best compound (V) ([1]; rat, oral): ~20 fold; plasma half-life, fold longer ([1]; rat, versus the other compounds examined): 10 fold |
